Results reported in US11952349B2, “Anti-cancer nuclear hormone receptor-targeting compounds” (Nuvation Bio Inc., priority 2019, dated 2024).
pIC50: −log10 of the molar value.

How the values were obtained:
Human recombinant PARP1 = Human recombinant PARP1 (Homo sapiens, UniProt P09874); assay: RBC HotSpot PARP1 assay (radioisotope-based filter binding); type: biochemical; details: Table 9; read-out: PARP1
Protocol: The following methods are for evaluating the in vitro biology properties of the test articles. • a. RBC HotSpot Poly(ADP-ribose) Polymerases 1 (PARP1) and Poly(ADP-ribose) Polymerases 2 (PARP2) Assays: The assay was conducted at Reaction Biology Corporation (RBC; Malvern, PA). The assay principle is radioisotope-based filter binding assay where incorporation of radioisotope-labeled NAD^+ into the substrate captured on filter is detected after washout free NAD^+. Data were analyzed using Excel and GraphPad Prism software for IC50 curve fits. Each assay was conducted with PJ34 as a positive control. PARP1 assay: Human recombinant PARP1 at a final concentration of 2.5 nM was combined with histone H4 (20 μM) and test articles at various concentrations in reaction buffer (50 mM Tris-HCL, pH 8.0, 50 mM NaCl, 10 mM MgCl2, 1 mM DTT, 1% DMSO, and 20 μg/mL activated DNA). The solution was inoculated for 20 min at room temperature and the reaction initiated by adding [adenylate-^32P]-Nicotinamide Adenine Dinucleotide, ^32P-NAD^+ at a final concentration of 10 μM. After incubation for 2 hrs at room temperature, the reaction mixture was filtered and washed with 0.75% phosphoric acid for radioactivity detection. • ii. PARP2 assay: Human recombinant PARP2 at a final concentration of 2.5 nM was combined with histone H3 (20 μM) and test articles at various concentrations in reaction buffer (50 mM Tris-HCL, pH 8.0, 50 mM NaCl, 10 mM MgCl2, 1 mM DTT, 1% DMSO, and 20 μg/mL activated DNA). The solution was inoculated for 20 min at room temperature and the reaction was initiated by adding [adenylate-^32P]-Nicotinamide Adenine Dinucleotide, ^32P-NAD^+ at a final concentration of 10 μM. After incubation for 2 hrs at room temperature, the reaction mixture was filtered and washed with 0.75% phosphoric acid for radioactivity detection. • b. AR binding assay: AR in LNCaP cytosol was used for determining the binding affinity of test articles and the reference compound—progesterone (Sigma, Cat: E2785, St. Louis, MO). IC50 s were determined using 8 concentrations/compound. Cytosol is plated at 200 μg/well (100 μL) into a 96-well conical polypropylene plate (Agilent, Cat: 5042-1385, Santa Clara, CA) and mixed with 3 μL of test compound. After adding 100 μL of ^3H-methyltrienolone (PerkinElmer, Cat: NET590250UC, San Jose, CA), the plate was sealed and shaken at 300 rpm at 4° C. for 24 hours. Post incubation, 100 μL of radioligand adsorption buffer containing 10 mM Tris-HCl, pH 7.4; 1.5 mM EDTA; 1 mM DTT; 0.25% charcoal; 0.0025% dextran was added to individual wells. Plate was shaken for 15 min at 4° C. followed by centrifugation at 3000 rpm for 30 min at 4° C. 150 μL of supernatant is transferred into scint-tube (PerkinElmer, Cat: 6000192) and mixed with 2 mL of Ultima Gold Cocktail (PerkinElmer, Cat: 6013329). Radioactivity is counted using a TriCarb 2910 TR scintillation counter (PerkinElmer). Inhibition of the radioactivity by test articles was calculated using the equation below: % Inhibition=(1−(Assay well−Average_LC)/(Average_HC−Average_LC))×100%. • IC50 values (Table 6) were calculated and graphed using the model “log(inhibitor) vs. response—Variable slope” included in GraphPad Prism 5 (San Diego, CA). The Ki values were further calculated using the equation below where [L] is the radioligand concentration (1 nM) used in this study. Kd value was 0.332 nM. Ki=IC50/(1+[L]/Kd) • c. AR transactivation: Human AR cloned into a CMV vector backbone is used for the transactivation study. HEK-293 cells are plated at 80,000 cells per well of a 24 well plate in DME+5% csFBS. Twenty four hours later, the cells are transfected using Lipofectamine (Invitrogen, Carlsbad, CA) with 0.25 μg GRE-LUC, 0.01 μg CMV-LUC (renilla luciferase) and 25 ng of the AR in OPTIMEM medium. The cells are treated 24 hrs after transfection with various ligands (10^−12 to 10^−5 M final concentrations) and luciferase assay performed 48 hours after transfection. […]

[1] = biological target: T1, full-length androgen receptor (Homo sapiens, UniProt P10275); assay: AR antagonism assay (HEK293, testosterone 1 nM, Steady-glo); type: cell-based; details: Table 8; testosterone 1 nM; read-out: AR antagonism
T1 construct: HEK293 cells stably expressing the full-length androgen receptor; expressed in transfected cells
T1 sequence (P10275 1-920): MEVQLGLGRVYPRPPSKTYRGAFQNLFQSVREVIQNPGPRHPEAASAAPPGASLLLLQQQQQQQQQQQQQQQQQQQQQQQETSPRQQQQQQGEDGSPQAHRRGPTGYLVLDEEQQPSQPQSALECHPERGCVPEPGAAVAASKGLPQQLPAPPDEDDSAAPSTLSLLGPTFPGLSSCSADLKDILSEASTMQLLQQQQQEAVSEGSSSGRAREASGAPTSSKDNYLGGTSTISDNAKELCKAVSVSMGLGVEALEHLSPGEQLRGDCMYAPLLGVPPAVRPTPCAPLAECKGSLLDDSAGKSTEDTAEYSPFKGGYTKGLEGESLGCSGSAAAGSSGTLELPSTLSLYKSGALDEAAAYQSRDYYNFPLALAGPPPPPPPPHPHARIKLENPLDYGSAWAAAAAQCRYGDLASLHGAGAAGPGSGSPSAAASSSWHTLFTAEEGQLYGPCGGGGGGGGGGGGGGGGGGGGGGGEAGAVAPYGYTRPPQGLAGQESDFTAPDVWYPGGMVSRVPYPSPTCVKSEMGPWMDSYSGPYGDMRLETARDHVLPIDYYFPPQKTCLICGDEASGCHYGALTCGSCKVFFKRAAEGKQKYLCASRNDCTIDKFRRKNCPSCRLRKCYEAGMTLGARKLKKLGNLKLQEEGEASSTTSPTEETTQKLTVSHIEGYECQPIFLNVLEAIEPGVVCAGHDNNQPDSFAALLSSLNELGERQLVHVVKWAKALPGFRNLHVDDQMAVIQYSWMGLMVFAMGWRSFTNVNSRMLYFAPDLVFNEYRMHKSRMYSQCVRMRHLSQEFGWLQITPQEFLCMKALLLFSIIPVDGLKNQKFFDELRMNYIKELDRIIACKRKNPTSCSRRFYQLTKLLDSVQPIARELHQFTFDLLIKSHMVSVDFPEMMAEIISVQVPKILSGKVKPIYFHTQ
Protocol: AR antagonism assay: To evaluate AR antagonist activity, test compound was added to the assay plate (top dose 10 μM, 3 fold serial dilution, 10 point dose response). HEK293 cells stably expressing the full-length androgen receptor were seeded at a density of 20000 cells/well in the assay plate. The assay plate was then incubated at room temperature for 10 minutes and at 37° C., 5% CO2 for 20 minutes. Testosterone was added to the assay plate at 1 nM final concentration and the assay plate was incubated at 37° C., 5% CO2 for 20 h. After the incubation period, Steady-glo was added to the assay plate and mixed at room temperature for 20 minutes on an orbital shaker, before reading out on the EnVision plate reader.

Human recombinant PARP1, sequence (P09874 whole entry): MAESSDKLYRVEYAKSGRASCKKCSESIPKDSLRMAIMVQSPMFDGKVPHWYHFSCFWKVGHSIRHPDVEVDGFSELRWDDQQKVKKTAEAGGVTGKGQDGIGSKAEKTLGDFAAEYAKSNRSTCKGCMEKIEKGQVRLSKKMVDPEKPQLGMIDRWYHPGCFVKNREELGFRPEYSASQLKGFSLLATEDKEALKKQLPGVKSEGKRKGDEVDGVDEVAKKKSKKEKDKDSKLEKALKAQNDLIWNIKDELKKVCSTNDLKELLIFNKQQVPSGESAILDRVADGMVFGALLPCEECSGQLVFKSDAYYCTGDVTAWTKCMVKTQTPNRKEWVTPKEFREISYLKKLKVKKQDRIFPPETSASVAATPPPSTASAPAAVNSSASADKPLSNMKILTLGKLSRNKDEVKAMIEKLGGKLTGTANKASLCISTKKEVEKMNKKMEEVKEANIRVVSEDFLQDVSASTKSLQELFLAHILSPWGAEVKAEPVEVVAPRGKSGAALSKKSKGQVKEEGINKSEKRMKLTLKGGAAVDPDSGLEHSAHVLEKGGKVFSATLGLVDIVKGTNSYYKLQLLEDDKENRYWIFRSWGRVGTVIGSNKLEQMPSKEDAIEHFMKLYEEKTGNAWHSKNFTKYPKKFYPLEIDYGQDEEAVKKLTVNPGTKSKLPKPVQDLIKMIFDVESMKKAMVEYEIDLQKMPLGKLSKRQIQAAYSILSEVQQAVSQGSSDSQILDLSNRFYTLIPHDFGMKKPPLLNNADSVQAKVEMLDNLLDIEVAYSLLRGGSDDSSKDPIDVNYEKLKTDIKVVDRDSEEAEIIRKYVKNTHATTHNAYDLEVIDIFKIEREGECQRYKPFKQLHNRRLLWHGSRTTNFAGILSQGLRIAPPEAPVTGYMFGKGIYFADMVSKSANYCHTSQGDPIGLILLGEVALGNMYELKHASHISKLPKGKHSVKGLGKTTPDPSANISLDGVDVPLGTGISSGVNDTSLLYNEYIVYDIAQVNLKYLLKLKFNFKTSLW

- pIC50 (Human recombinant PARP1): > 9.00
- pIC50 [1]: < 5.00
SMILES: CC#C[C@]1(O)CC[C@H]2[C@@H]3CCC4=CC(=O)CCC4=C3[C@@H](c3ccc(N(C)CCCCCC(=O)NCCOCCOCC(=O)N4CCN(C(=O)c5cc(Cc6n[nH]c(=O)c7ccccc67)ccc5F)CC4)cc3)C[C@@]21C [Compound 1429, N-(2-(2-(2-(4-(2-fluoro-5-((4-oxo-3,4-dihydrophthalazin-1-yl)methyl)benzoyl)piperazin-1-yl)-2-oxoethoxy)ethoxy)ethyl)-6-((4-((8S,11R,13S,14S,17S)-17-hydroxy-13-methyl-3-oxo-17-(prop-1-ynyl)-2,3,6,7,8,11,12,13,14,15,16,17-dodecahydro-1H-cyclopenta[a]phenanthren-11-yl)phenyl)(methyl)amino)hexanamide]
